Data published in PMC9865629, “Rhanteriol, a New Rhanterium suaveolens Desf. Lignan with Pharmacological Potential as an Inhibitor of Enzymes Involved in Neurodegeneration and Type 2 Diabetes” (Plants, 2023).

Assays:
BuChE = conditions: read-out: IC50 (BuChE, by context); lignans from Citharexylum spinosum L.; cited from earlier work
α-glucosidase = α-glucosidase inhibition assay; type: biochemical; conditions: pure compound and standard
Procedure: Results are expressed as IC50 values (mg/mL for extracts and µM for pure compound), using GraphPad Prism 8 Software (San Diego, CA, USA). The assay was carried out in triplicate.

[1] = molecular target: acetylcholinesterase (AChE) (Homo sapiens, UniProt P22303); test: biochemical; conditions: read-out: % of inhibition against AChE
Procedure: (§1) The inhibition of AChE and BuChE was evaluated using Ellman’s method, as previously reported. Briefly, extracts and pure compound were incubated with AChE or BuChE (25 µL, 0.05 U/mL), DTNB (125 µL, 3 mM) and buffer B (25 µL, 50 mM Tris–HCl, pH 8 containing 0.1% BSA) for 10 min at 37 °C. Then, the substrate of the reaction, the acetylthiocholine iodide or butyrylthiocholine chloride (25 µL, 5 mM), was added, and the absorbance was measured at 405 nm, after 10 min. Galanthamine was used as the standard in both assays. Results are expressed as IC50 values (mg/mL for extracts and µM for pure compound), using GraphPad Prism 8 Software (San Diego, CA, USA). The test was carried out in triplicate.

[2] = molecular target: butyrylcholinesterase (BuChE) (Homo sapiens, UniProt P06276); test: biochemical
Procedure: as §1

[3] = test system: HeLa (cervical carcinoma) cells; test: Cell viability MTT assay, HeLa; type: cell-based; conditions: 100, 50, 25 µM for 48 h, data not shown
Procedure: (§2) HeLa (cervical carcinoma), Jurkat (T-cell leukemia), and U937 (monocytic leukemia) cell lines were obtained from the American Type Cell Culture (ATCC) (Rockville, MD, USA). Cells were maintained in DMEM (HeLa) or RPMI 1640 (Jurkat and U937), supplemented with 10% FBS, 100 mg/L streptomycin and penicillin 100 IU/mL at 37 °C in a humidified atmosphere of 5% CO2. To ensure logarithmic growth, cells were subcultured every two days. Stock solutions (50 mM) of purified compound in DMSO were stored in the dark at 4 °C. Appropriate dilutions were prepared in a culture medium immediately prior to use.
(§3) Cell viability was evaluated using a colorimetric assay based on an MTT ([3-(4,5-dimethylthiazol-2-yl)-2,5-diphenyltetrazolium bromide]) assay, in order to compare the effect of potentially cytotoxic substances with a control condition. Briefly, cells were plated in 96-well tissue culture plates (3.5 × 10^3 cells/well) and after 24 h, the medium was replaced with a fresh one alone or one containing serial dilutions of compound 1 (100, 50, 25 µM), and incubation was performed for 48 h. […] The optical density (OD) of each well was measured with a microplate spectrophotometer (Multiskan Spectrum Thermo Electron Corporation reader, Thermo Fisher Scientific, Waltham, Massachusetts, United States) equipped with a 620 nm filter. Cell vitality was calculated as % vitality = 100 × (OD treated/OD DMSO).

[4] = test system: U937 (monocytic leukemia) cells; test: Cell viability MTT assay, U937; type: cell-based; conditions: 100, 50, 25 µM for 48 h, data not shown
Procedure: as §2, §3

[5] = test system: Jurkat (T-cell leukemia) cells; test: Cell viability MTT assay, Jurkat; type: cell-based; conditions: 100, 50, 25 µM for 48 h, data not shown
Procedure: as §2, with “use. […]” for “use.”
as §3, with “condition.” for “condition. Briefly, cells were plated in 96-well tissue culture plates (3.5 × 10^3 cells/well) and after 24 h, the medium was replaced with a fresh one alone or one containing serial dilutions of compound 1 (100, 50, 25 µM), and incubation was performed for 48 h.”

[6] = test system: HaCaT epidermal keratinocytes; test: Cell viability MTT assay, HaCaT; type: cell-based; conditions: 100, 50, 25 µM for 48 h, data not shown
Procedure: Epidermal keratinocytes (HaCaT) were cultured in Dulbecco’s Modified Eagle’s Medium containing 10% fetal bovine serum, supplemented with 100 U/mL each of penicillin and streptomycin, and 2 mM/L glutamine, and grown at 37 °C under 5% CO2 air humidified atmosphere. Human leukemia cell lines (Jurkat) were maintained in RPMI medium supplemented with 10% FBS, 2 mM l-glutamine, 100 U/mL penicillin, and […] at 37 °C, in 5% CO2 [26].
as §3, with “h. Staurosporin 0.2 µM was used as a positive control.” for “h.”

Sequence of acetylcholinesterase (AChE) (P22303 32-614, species assumed): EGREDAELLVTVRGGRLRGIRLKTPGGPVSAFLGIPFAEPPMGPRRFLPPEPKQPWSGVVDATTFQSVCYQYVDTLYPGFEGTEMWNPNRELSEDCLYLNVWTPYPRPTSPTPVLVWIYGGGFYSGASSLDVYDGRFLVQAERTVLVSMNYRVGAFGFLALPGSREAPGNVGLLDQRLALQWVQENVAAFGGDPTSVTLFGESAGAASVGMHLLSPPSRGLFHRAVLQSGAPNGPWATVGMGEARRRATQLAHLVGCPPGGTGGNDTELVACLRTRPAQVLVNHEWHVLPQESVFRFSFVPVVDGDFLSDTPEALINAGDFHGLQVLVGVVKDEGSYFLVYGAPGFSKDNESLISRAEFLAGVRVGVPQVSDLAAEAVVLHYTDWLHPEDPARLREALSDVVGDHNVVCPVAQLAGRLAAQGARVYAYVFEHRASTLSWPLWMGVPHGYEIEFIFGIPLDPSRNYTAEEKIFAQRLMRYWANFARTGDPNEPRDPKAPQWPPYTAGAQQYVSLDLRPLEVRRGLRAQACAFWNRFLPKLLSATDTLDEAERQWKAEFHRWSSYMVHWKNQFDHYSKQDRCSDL
Sequence of butyrylcholinesterase (BuChE) (P06276 29-602): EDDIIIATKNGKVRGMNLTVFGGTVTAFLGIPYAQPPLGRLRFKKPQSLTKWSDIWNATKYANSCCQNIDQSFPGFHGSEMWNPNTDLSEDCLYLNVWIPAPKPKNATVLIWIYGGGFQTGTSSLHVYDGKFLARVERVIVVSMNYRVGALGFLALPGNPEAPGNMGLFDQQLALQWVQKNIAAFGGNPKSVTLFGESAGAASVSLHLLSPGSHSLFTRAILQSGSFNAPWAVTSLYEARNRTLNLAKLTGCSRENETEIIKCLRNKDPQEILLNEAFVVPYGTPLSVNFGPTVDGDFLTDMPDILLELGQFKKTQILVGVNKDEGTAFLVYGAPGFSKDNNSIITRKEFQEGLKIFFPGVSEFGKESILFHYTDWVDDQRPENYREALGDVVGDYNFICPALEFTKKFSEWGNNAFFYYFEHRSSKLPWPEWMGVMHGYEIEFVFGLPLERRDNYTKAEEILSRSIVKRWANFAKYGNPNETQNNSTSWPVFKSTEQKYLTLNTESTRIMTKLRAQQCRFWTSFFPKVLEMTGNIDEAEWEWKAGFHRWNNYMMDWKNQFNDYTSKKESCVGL

Compound | IC50 (BuChE) | IC50 (α-glucosidase) | inhibition at 100 µM [1] | IC50 [2] | cytotoxicity (MTT) [3] | cytotoxicity (MTT) [4] | cytotoxicity (MTT) [5] | cytotoxicity (MTT) [6]
plucheoside D2 | 71.3 ± 2.82 µM |  |  |  |  |  |  | 
COc1cc(C[C@@H]2CO[C@@H](c3ccc(O)c(OC)c3)[C@@H]2COC(=O)c2ccccc2)ccc1O [Compound 1, 4-benzoic acid 4-(4-hydroxy-3-meethoxybenzyl)-2-(4-hydroxy-3-methoxyphenyl) tetrahydrofuran-3-ylmethyl ester] |  | 26.8 ± 3.29 µM | 21% | 10.41 ± 0.03 µM | not toxic | not toxic | not toxic | not toxic
plucheoside D1 | 98.1 ± 2.72 µM |  |  |  |  |  |  | 
